In publication PMC6934184, “Selective DNA-PKcs inhibition extends the therapeutic index of localized radiotherapy and chemotherapy” (The Journal of Clinical Investigation, 2019) one finds inhibition data, which are given here for one molecule.

The target in this assay is T1, TGFBR1 (ALK5) (Homo sapiens, UniProt P36897).
T1 construct: purchased Thermo Fisher Scientific (Life Technologies) SelectScreen
Put plainly: SelectScreen LanthaScreen. It is filed as binding. Particulars: read-out: % displacement. The method, boiled down: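 NU5455 was profiled across the SelectScreen Broad panel of kinase activity and binding assays. Z'LYTE reactions such as CSF1R ran at apparent Km ATP, while the Adapta CAMK1 assay used ATP listed as 10. Values are given as percent.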

T1 sequence (P36897 34-503): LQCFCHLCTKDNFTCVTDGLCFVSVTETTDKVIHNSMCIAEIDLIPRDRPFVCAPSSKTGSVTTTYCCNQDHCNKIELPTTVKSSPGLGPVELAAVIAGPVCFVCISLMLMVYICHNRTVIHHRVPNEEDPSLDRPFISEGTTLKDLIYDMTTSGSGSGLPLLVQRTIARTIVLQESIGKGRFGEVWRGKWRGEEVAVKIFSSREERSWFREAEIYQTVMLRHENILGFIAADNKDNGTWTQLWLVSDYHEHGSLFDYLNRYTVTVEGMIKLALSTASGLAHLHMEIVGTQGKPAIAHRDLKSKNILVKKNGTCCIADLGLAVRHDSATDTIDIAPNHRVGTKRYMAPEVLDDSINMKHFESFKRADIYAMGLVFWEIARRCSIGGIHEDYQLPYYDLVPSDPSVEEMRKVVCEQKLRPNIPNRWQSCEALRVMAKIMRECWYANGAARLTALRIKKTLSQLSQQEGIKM

Regarding `CN(C(=O)CN1CCOCC1)c1ccc2sc3c(-c4cccc5c(=O)cc(N6CC7CCC(C6)O7)oc45)cccc3c2c1` [NU5455], the inhibition at 1 µM was -0.4%.
